Measurements published in patent US12304894B2, “Derivatives of adamantyl oxadiazoles and pharmaceutically acceptable solvates, hydrates and salts thereof, pharmaceutical composition comprising same, synthesis method, suitable for use as effective and selective inhibitors of the reductase activity of the enzyme 11-beta dehydrogenase type 1 …” (PONTIFICIA UNIVERSIDAD CATOLICA DE CHILE, priority 2019, dated 2025).
In brackets after ≈: the same amount, converted by molar mass.

Columns and labels:
[1] = molecular target: T1, recombinant 11β-HSD1 enzyme (Homo sapiens (Human), UniProt P28845); assay: 11β-HSD1 reductase activity (HTRF Cortisol Kit); type: biochemical; settings: 266 nM cortisone, 333 μM NADPH, read-out: 11b-HSD1 reductase (HTRF) IC50
T1 sequence (P28845 whole entry): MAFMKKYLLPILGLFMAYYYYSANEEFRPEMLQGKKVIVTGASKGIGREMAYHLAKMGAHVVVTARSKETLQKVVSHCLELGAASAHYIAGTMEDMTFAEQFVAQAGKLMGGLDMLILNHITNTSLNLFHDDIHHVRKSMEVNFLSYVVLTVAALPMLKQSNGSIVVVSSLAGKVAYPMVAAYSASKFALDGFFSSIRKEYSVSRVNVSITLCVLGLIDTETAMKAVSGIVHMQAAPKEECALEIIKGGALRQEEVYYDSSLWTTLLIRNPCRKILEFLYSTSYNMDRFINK
Description: Determination of 11β-HSD1 Reductase Activity
First, stock solutions of the compounds were prepared in DMSO at a concentration of […], of which serial dilutions were made in order to determine the efficacy curve.
As for the recombinant 11β-HSD1 enzyme (Cayman Chemical, MI, USA; Item No. 10007815), it was prepared in Tris Buffer 20 mM EDTA 5 mM pH 6.0 (Tris buffer) at different dilutions.
Initially, the enzyme concentration to be used in the assays in order to evaluate the biological activity of the compounds was determined. The Cortisol Kit product (Cisbio, MA, USA; Cat no. 62CRTPEG) was used for that purpose.
The protocol consisted of preparing the reaction buffer, adding 266 nM cortisone and 333 μM NADPH in Tris buffer. Then, this reaction buffer is added to the wells of the HTRF (Homogeneous Time Resolved Fluorescence) reaction plate together with the enzyme in a 4:1 ratio respectively, and incubated for 2 hours at 37° C. In the case of the control wells, two wells with Tris buffer were added, without compounds.
After the incubation time, the reagents of the Cortisol kit were added, Cortisol d2 and Cortisol cryptate in sample ratio, Cortisol d2 and cortisol cryptate 2:1:1, in a quantity according to the size of the well as indicated by the supplier (for the negative control of the kit, the cortisol d2 is replaced by the kit's reconstitution buffer). This reaction is incubated for 1 hour at room temperature in order to later read the fluorescence at 665 and 620 nm.
Once the enzyme concentration to be used has been determined, the cortisol kit protocol is continued to determine the efficacy curve for the compounds. As previously done, a plate for HTRF was prepared adding to each well of the reaction buffer, the recombinant 11β-HSD1 enzyme and the compounds to be assayed in a 3:1:1 ratio, respectively. The plate was subsequently incubated at 37° C. for 2 hours.
After the incubation time, the reagents of the cortisol kit, cortisol d2 and cortisol cryptate, are added, and were incubated again for 1 hour at room temperature. Finally, the fluorescence of each well was determined at 665 and 620 nm.

[2] = Aqueous solubility in the gastrointestinal pH range; type: physicochemical
Description: A stock solution of 100 mM was prepared in DMSO that was added in volumes established on the buffers until the appearance of turbidity was observed. These solutions were prepared in triplicate in final DMSO concentrations of 0.5 to 5.0% V/V of each buffer, then were incubated at 37° C. with vigorous stirring for 48 hours, then another 48 hours but without stirring. The samples were centrifuged and the supernatant was diluted with mobile phase chromatography to be later analyzed by μHPLC-Ms/Ms. The solubility value at each pH was obtained from the intercept of the straight line solubility versus % DMSO. Table 6 presents the aqueous solubility values of BD-40 in the pH range 1.2-6.8.

[3] = molecular target: T1, recombinant 11β-HSD1 enzyme; assay: 11β-HSD1 oxidase activity (HTRF Cortisol Kit); type: biochemical
Description: Determination of 11β-HSD1 Oxidase Activity
The Cortisol Kit (Cisbio) product was used for that purpose.
For the analysis, the compounds are reconstituted in DMSO in a stock of 10 mM concentration, from which serial dilutions were prepared for the efficiency curve.
The recombinant 11β-HSD1 enzyme dilutions were prepared in 20 mM Tris Buffer 5 mM EDTA pH 6.0 (Tris buffer).
Initially, the enzyme concentration to be used was determined. For this purpose, a plate for HRTF was prepared with Tris buffer with 100 nM cortisol and 200 μM NADP+, including in the wells of the plate for HTRF together with the enzyme in a 4:1 ratio, respectively, and incubated for 2 hours at 37° C. After this time, the reagents of the Cortisol kit, Cortisol d2 and Cortisol cryptate in sample ratio, Cortisol d2 and cortisol cryptate 2:1:1 were added, incubating this new reaction for 1 hour at room temperature. Subsequently, the fluorescence was determined at 665 and 620 nm.
An HRTF plate was again prepared, where the reaction buffer, the recombinant 11β-HSD1 enzyme and the compound were added in each well in a 3:1:1 ratio, respectively. The plate was incubated at 37° C. for 2 hours. After the incubation time, the reagents of the cortisol kit, cortisol d2 and cortisol cryptate, were added as indicated above. They were then incubated at room temperature for 1 hour to finally read the fluorescence at 665 and 620 nm.

[4] = tested on: Madin-Darby Canine Kidney (MDCK) cells transfected with human P-glycoprotein (hMDR1); settings: MDCK-MDR1
Description: Madin-Darby Canine Kidney (MDCK) cells were used in this assay, which are stably transfected with the gene encoding human P-glycoprotein (hMDR1). These cells were cultured in DMEM medium (Dulbecco's Modified Eagle's Medium) high in glucose and supplemented with 10% fetal bovine serum, 1% 5 mM pyruvate, 1% non-essential amino acids solution X5, 20,000 IU/mL of penicillin G and 20,000 IU/mL of streptomycin, a temperature of 37° C., 90% relative humidity and 5% CO2. These cells were seeded in sterile plates on the fourth day of growth or until reaching 90% confluence.
Ten days before carrying out the transport analysis, cells were seeded in Transwells® inserts (1.12 cm2) at a density of 60,000 cells/cm^2. The monolayers were supplemented every two days with fresh culture medium. […] In parallel, B-A experiments were performed (1.5 mL of donor solution in basolateral compartment and 0.5 mL buffer in apical). The monolayers were incubated while stirring (50 rpm) at a temperature of 37° C. for a period of 2 hours. Additionally, this assay was performed in the presence of the Pgp inhibitor elacridar (5 μM). After the stir time, the inserts were removed, the compartments were sampled and the cells were transferred to HPLC vials by diluting these samples with mobile phase chromatography. These samples were kept at −20° C. until their analysis time. […]

11β-HSD2 = 11β-HSD2 oxidase activity in human hepatic microsomes (HTRF Cortisol Kit); type: biochemical; settings: remaining activity at 100 nM compound
Description: Determination of 11β-HSD2 Oxidase Activity
The concentration of cortisone produced in the reaction, with and without the compounds, was determined using the Cortisol Kit (Cisbio) product in order to evaluate the 11β-HSD2 oxidase activity.
As in the previous assays, the compounds are reconstituted in DMSO to 10 mM stock, in order to subsequently make serial dilutions to determine the efficacy curve.
To perform the assay, the HTRF plate was prepared containing Tris buffer, 100 nM cortisol and 200 μM NAD^+. Enzyme is added to the corresponding wells in a 4:1 ratio, respectively, and incubated for 2 hours at 37° C. For the kit control, two wells are added only with Tris buffer.
After the incubation time, the reagents of the Cortisol kit, Cortisol d2 and Cortisol cryptate, in a sample ratio, Cortisol d2 and cortisol cryptate 2:1:1 are added. For the negative control, cortisol d2 was replaced in some wells by the kit's reconstitution buffer. The plate was incubated for 1 hour at room temperature to later read at 665 and 620 nm.
For this purpose, the reaction buffer was prepared and subsequently, in a plate for HTRF, the reaction buffer, the microsomes in a concentration of 5 mg/mL and the compound in a ratio of 3:1:1, respectively, were added to each well. In the case of reaction controls, the reaction buffer without cortisol and without compound is included for the negative control. For the positive control, no compound is added, and for the kit controls, only the reaction buffer is added to the negative and positive control wells.
After incubating the plate for 2 hours, the reagents of the cortisol kit, cortisol d2 and cortisol cryptate, are added to the corresponding wells as indicated above. They are then incubated at room temperature for 1 hour to finally read the 665 and 620 nm fluorescence.

plasma proteins = assay: Plasma protein binding (Transil XL PPB Binding Kit); type: in vitro ADME
Source text: To carry out this study, the commercial Transil XL PPB Binding Kit, v2, Sovicell was used, following the manufacturer's recommendations.

For `Cc1cccc(CCc2nc(C34CC5CC(CC(C5)C3)C4)no2)c1` [BD-40, 1-(3-methylphenyl)-2-(3-adamantyl-1,2,4-oxadiazol-5-yl)ethane], the IC50 [1] was 11.8 nM, the Solubility ([2]; pH 1.7, 37° C.) was 96.16 µg/mL (≈ 298 µM) and the Solubility ([2]; pH 4.5, 37° C.) was 64.12 µg/mL (≈ 199 µM). For the same compound, the Solubility ([2]; pH 6.8, 37° C.) was 59.23 µg/mL (≈ 184 µM), the “11b-HSD1 oxidase (activ rem %) 100 nM” value ([3]; remaining activity at 100 nM compound) was 92.1% and the “11b-HSD1 oxidase (activ rem %) 100 uM” value ([3]; remaining activity at 100 uM compound) was 89.9%. The “Papp compared with high permeability marker minoxidil” value [4] was “higher than those of the high permeability marker minoxidil”, the “11b-HSD2 oxidase (activ rem %) Microcosms 100 nM” value (11β-HSD2) was 97.9% and the plasma protein binding (plasma proteins) was 98.3±1.9%.
